Source: patent US8030493B2, “Monovalent and divalent salts of N-(5-hydroxynicotinoil) -L-glutamic acid exhibiting psychotropic (antidepressant and anxiolytic), neuroprotective, geroprotective and cerebroprotective action” (Obschestvo S Ogranichennoy Otvetstvennostyu “Natsionalnaya …, priority 2006, dated 2011)
Marks after values point to notes of the source that are not given here.

Legend:
[1] = test system: rats with hemorrhagic stroke; test: Hemorrhagic stroke: neurological deficit (Stroke-index McGrow scale); type: in vivo; conditions: for Number of animals with neurological symptoms, %: Circus movements / Number of animals with neurological symptoms, %: Palsy of 1-4 extremities / Number of animals with neurological symptoms, %: Paresis of 1-4 extremities / Number of animals with neurological symptoms, %: Weakness of extremities: 20 mg/kg single dose intraperitoneally; for Rats with severe neurological symptoms: control with hemorrhagic stroke 60%
Source text: (§1) White nondescript male rats with body weight 200-250 g, which lived in vivarium and had feed (standard palletized feed) and water ad libitum, with natural alternation of day and night, were used in the experiments. Hemorrhagic stroke (local cerebral hemorrhage) was simulated according to method by A. N. Makarenko et al. (Method of local hemorrhage simulation I various structures of the brain in experimental animals. Journal Visshei Nervnoy Deyatelnosti—Journal of Higher Nervous Activities, 2002, v. 52, No 6, p. 765-768). In nembutal-anesthetized rats (40 mg/kg, i.m.) destruction of the brain tissue in capsule interna area was made with the use of special device (mandarin-knife) followed by application of blood (0.02-0.03 ml) taken from under the rat's tongue to the damaged area (within 2-3 minutes). False-operated animals underwent scalping and craniotomy. The animals were divided into 5 groups: intact rats, false-operated rats, animals with hemorrhagic stroke received nooglutyl at 20 mg/kg, and animals with hemorrhagic stroke received Compound I at 20 mg/kg. Effects were recorded within 24 hours and 14 days after the surgery. Learning ability and memory of the rats was examined in the model of passive avoidance response (PAR, Passive Avoidance supplied by Lafayette Instrument Co., USA). To determine neurological deficit in the animals Stroke-index McGrow scale modified by I. V. Gannushkina (Functional architectonics of the brain, Moscow, Medicina, 1977, 224 p.) was used. The severity of the condition was determined by the sum of the points. The number of rats with mild symptoms up to 2.5 points of Stroke-index scale (apathy, weakness of the extremities, unilateral semiptosis, tremor, circus movements) and severe manifestations of neurological disorders (3 to 10 points)—paresis of the extremities, palsy of low extremities, lateral position. The animals received single dose of nooglutyl and Compound I at the same dose 20 mg/kg intraperitoneally within 3-3.5 hours after the surgery. Controlled animals were treated with saline. At onset of the experiment each group comprised 15-20 animals. Mortality of the rats was recorded throughout the observation period (14 days). Statistical analysis was made using parametrical and non-parametrical methods and Biostat software. Nimodipin administered at 01.mg/kg according to above scheme was considered as a standard.

[2] = test system: mice exposed to hypoxia in hermovolume; test: Hypoxia with hypercapnia in hermovolume; type: in vivo
Method: (§2) White nondescript male mice with body weight 22-28 g were used in the experiments. Each dose level was studied in 10 animals. Control animals received equivalent volume of distilled water. Nooglutyl was used as reference agent. Study compounds were administered intraperitoneally 40 minutes before the experiment.
(§3) Acute hypobaric hypoxia was simulated in flow-exhaust chamber. Pressure was measured with altimeter, and elevation speed with variometer. The animals were “elevated” at the speed 20 m/s to the stage at 11000 m. The exposure lasted 10 minutes. Then the animals were mover down to the baseline level for 5 minutes. Hypoxia with hypercapnia in hermovolume was created by placement of the animal into 200 ml hermetically sealed glass vessels. Life period of the animals under hypoxic conditions was recorded. Each group comprised 10 animals.

[3] = test system: mice exposed to hypobaric hypoxia; test: Acute hypobaric hypoxia in flow-exhaust chamber; type: in vivo
Method: as §2, §3

[4] = test system: rats with hemorrhagic stroke; test: Intracerebral posttraumatic hematoma (hemorrhagic stroke): survival; type: in vivo; conditions: 20 mg/kg single dose intraperitoneally 3-3.5 hours after surgery
Source text: as §1

aged rats (24 months) = test: Passive avoidance response in aged rats (24 months); type: in vivo; conditions: 20 mg/kg 60 days, PAR reproduction 24 hours after learning; for Number of the rats, which did not entry dark chamber (%): 20 mg/kg
Method: White nondescript male rats (Wistar line): to adult animals at age 3 months with body weight 250-300 g and aged 24 month old animals with body weight 350-450 g were used in the study. Nooglutyl at dose level 20 mg/kg and Compound I were administered to aged rats intraperitoneally for 2 months followed by assessment of the effect on learning capacity impaired by age and neurological deficit. Analysis of variance with Student's test, variant portion method and U-test were employed for data processing.
Impact of Compound I on memory disorders in aged animals. To develop passive avoidance response (PAR) in rats the unit supplied by Lafayette Instrument Co., (USA) (Ader et al. Retention of a passive avoidance response as a function of the intensity and duration of electric shock. Psycho Sci. 1972, v. 26, p. 125-128; Voronina T. A. et al. “Textbook for Experimental (Preclinical Study) of novel pharmacological compounds”. Moscow, Medicina. 2005, p. 253-263 and 308-320) was used. […] Animals preferring illuminated platform were not used in this experiment. In the dark chamber the animal received single pain stimulus with electric current (0.45 mA), duration of the stimulus was determined from the running out of the animal from the dark chamber.

[5] = test system: rats with induced ischemia; test: Passive avoidance response in animals with induced ischemia; type: in vivo; conditions: 24 hours after learning, 180 seconds test
Source text: In separate series of the experiments the animals learned in the test of passive avoidance response (PAR), which was formed in apparatus supplied by Lafayette Instrument Co. (USA) comprising brightly illuminated hanging platform connected to dark chamber with electrified floor. In the course of learning the rat entered dark chamber due to congenital hole reflex, and received pain electric stimulus.
These effects of nooglutyl and Compound Ia were significant compared with control at p<0.05.

in vivo = conditions: male, white nondescript (outbred), mouse, ip
Method: The study of acute daily toxicity of Compound I was carried out on white nondescript male mice with body weight 25-28 g, which lived in habitual conditions in vivarium and received feed and water ad libitum. Single dose of Compound I was administered intraperitoneally. The animals were under observation for 2 days after the dosing. The dose levels of Compound I used in the toxicity study were as follows: 800 mg/kg, 1000 mg/kg, 1200 mg/kg, 1500 mg/kg, 1600 mg/kg. Compound I was dissolved in distilled water and administered in 0, 1 ml per 10 g of the body weight of the animal when the doses 800 mg/kg and 1000 mg/kg, and in 0.2 ml per 10 g of the body weight when the doses 1200 mg/kg, 1500 mg/kg, 1600 mg/kg were used. Control animals received distilled water in the volume 0.2 ml per 10 g of the body weight.
Each dose group comprised 10 animals.

[6] = 30 mg/kg intraperitoneally 40 minutes before the experiment
[7] = 60 mg/kg intraperitoneally 40 minutes before the experiment
[8] = 120 mg/kg intraperitoneally 40 minutes before the experiment

O=C([O-])CC[C@H](NC(=O)c1cncc(O)c1)C(=O)[O-].[Ca+2] [Compound I, Calcium N-(5-hydroxynicotinoyl)-L-glutamate]
Number of animals with neurological symptoms, %: Circus movements ([1]; Day 1): 10%
Number of animals with neurological symptoms, %: Palsy of 1-4 extremities ([1]; Day 1): 0%
Number of animals with neurological symptoms, %: Paresis of 1-4 extremities ([1]; Day 1): 10%
Number of animals with neurological symptoms, %: Weakness of extremities ([1]; Day 1): 20* %
Number of animals with neurological symptoms, %: Circus movements ([1]; Day 14): 10%
Number of animals with neurological symptoms, %: Palsy of 1-4 extremities ([1]; Day 14): 0%
Number of animals with neurological symptoms, %: Paresis of 1-4 extremities ([1]; Day 14): 5* %
Number of animals with neurological symptoms, %: Weakness of extremities ([1]; Day 14): 0%
Rats with severe neurological symptoms ([1]; Day 14): 15%
Life interval of mice (minutes) exposed to hypoxia in hermovolume [2, 6]: 16.2 ± 0.31 min
Life interval of mice (minutes) exposed to hypoxia in hermovolume [2, 7]: 17.8 ± 0.41 min
Life interval of mice (minutes) exposed to hypoxia in hermovolume [2, 8]: 18.1 ± 0.48 min
Life interval of mice (minutes) exposed to hypobaric hypoxia [3, 6]: 6.51 ± 0.82 min
Life interval of mice (minutes) exposed to hypobaric hypoxia [3, 7]: 9.17 ± 0.91 min
Number of animals which died in relation to total number of operated animals, absolute, Day 1 after surgery [4]: 1 of 20
Number of animals which died in relation to total number of operated animals, absolute, Day 3 after surgery [4]: 2 of 20
Number of animals which died in relation to total number of operated animals, absolute, Day 7 after surgery [4]: 2 of 20
Number of animals which died in relation to total number of operated animals, absolute, Day 14 after surgery [4]: 2 of 20
Number of animals which died, %, Day 1 after surgery [4]: 5%
Number of animals which died, %, Day 3 after surgery [4]: 10## %
Number of animals which died, %, Day 7 after surgery [4]: 10## %
Number of animals which died, %, Day 14 after surgery [4]: 10%
Number of animals which died, %, Day 14 after surgery ([4]; listed as compound I): 10## %
Latent period of entry to dark chamber (c) (aged rats (24 months)): 96.9 ± 16.1 c
Number of the rats, which did not entry dark chamber (%) (aged rats (24 months)): 60%
Latent period of entry to dark dangerous chamber [5]: 62.3 ± 7.2 s
LD50 at 2 days (in vivo): 1150 mg/kg

O=C(O)CC[C@H](NC(=O)c1cncc(O)c1)C(=O)O [Nooglutyl, N-(5-hydroxynicotinoyl)-L-glutamic acid, reference compound]
Number of animals with neurological symptoms, %: Circus movements ([1]; Day 1): 5%
Number of animals with neurological symptoms, %: Palsy of 1-4 extremities ([1]; Day 1): 0%
Number of animals with neurological symptoms, %: Paresis of 1-4 extremities ([1]; Day 1): 25%
Number of animals with neurological symptoms, %: Weakness of extremities ([1]; Day 1): 30* %
Number of animals with neurological symptoms, %: Circus movements ([1]; Day 14): 0%
Number of animals with neurological symptoms, %: Palsy of 1-4 extremities ([1]; Day 14): 0%
Number of animals with neurological symptoms, %: Paresis of 1-4 extremities ([1]; Day 14): 20* %
Number of animals with neurological symptoms, %: Weakness of extremities ([1]; Day 14): 10%
Rats with severe neurological symptoms ([1]; Day 14): 25%
Life interval of mice (minutes) exposed to hypoxia in hermovolume [2, 6]: 13.9 ± 0.42 min
Life interval of mice (minutes) exposed to hypoxia in hermovolume [2, 7]: 15.2 ± 0.39 min
Life interval of mice (minutes) exposed to hypoxia in hermovolume [2, 8]: 16.4 ± 0.53 min
Life interval of mice (minutes) exposed to hypobaric hypoxia [3, 6]: 4.1 ± 0.77 min
Life interval of mice (minutes) exposed to hypobaric hypoxia [3, 7]: 7.68 ± 0.54 min
Number of animals which died in relation to total number of operated animals, absolute, Day 1 after surgery [4]: 3 of 20
Number of animals which died in relation to total number of operated animals, absolute, Day 3 after surgery [4]: 4 of 20
Number of animals which died in relation to total number of operated animals, absolute, Day 7 after surgery [4]: 4 of 20
Number of animals which died in relation to total number of operated animals, absolute, Day 14 after surgery [4]: 4 of 20
Number of animals which died, %, Day 1 after surgery [4]: 15%
Number of animals which died, %, Day 3 after surgery [4]: 20# %
Number of animals which died, %, Day 7 after surgery [4]: 20# %
Number of animals which died, %, Day 14 after surgery [4]: 20%
Number of animals which died, %, Day 14 after surgery ([4]; listed as nooglutyl): 20## %
Latent period of entry to dark chamber (c) (aged rats (24 months)): 97.1 ± 20.3 c
Number of the rats, which did not entry dark chamber (%) (aged rats (24 months)): 60%
Latent period of entry to dark dangerous chamber [5]: 56.2 ± 8.3 s
LD50 at 2 days (in vivo): 1200 mg/kg
